Structures can show the parent of a compound that is named as a salt.
Biological target: T1, recombinant human 5-HT5A receptor (Homo sapiens, UniProt P47898)
T1 construct: expressed in transfected cells; host or cells: HEK-EBNA (Human Embryonic Kidney-EBNA) cells, transient cDNA expression; membranes
Assay: [3H]LSD radioligand binding assay
Conditions: [3H]LSD (approximately 1 nM); membranes from transiently expressed 5-HT5A receptors in HEK-EBNA cells; Ki from IC50 by Cheng-Prussoff equation
Experimental: A [^3H]LSD radioligand binding assay was used to determine the affinity of the compounds for the recombinant human 5-HT5A receptor, in membranes from transiently (cDNA) expressed 5-HT5A receptors in Human Embryonic Kidney-EBNA (HEK-EBNA) cells. Assay buffer consisted of Tris (50 mM) buffer containing 1 mM EGTA, 10 mM MgCl2 (pH 7.4) and 10 μM pargyline. The binding assay was carried out in 96-well-plates in the presence of [^3H]LSD (approximately 1 nM), approximately 2 μg/well of membrane protein, and 0.5 mg of Ysi-poly-1-lysine SPA beads in a final volume of 200 μl of buffer. Non-specific binding was defined using methiothepin 2 μM. Compounds were tested at 10 concentrations. All assays were conducted in duplicate and repeated at least two times. Assay plates were incubated for 120 min at room temperature before centrifugation. Bound ligand was determined using a Packard Topcount scintillation counter. IC50 values were calculated using a non-linear curve fitting program and Ki values calculated using the Cheng-Prussoff equation.

T1 sequence (P47898 whole entry): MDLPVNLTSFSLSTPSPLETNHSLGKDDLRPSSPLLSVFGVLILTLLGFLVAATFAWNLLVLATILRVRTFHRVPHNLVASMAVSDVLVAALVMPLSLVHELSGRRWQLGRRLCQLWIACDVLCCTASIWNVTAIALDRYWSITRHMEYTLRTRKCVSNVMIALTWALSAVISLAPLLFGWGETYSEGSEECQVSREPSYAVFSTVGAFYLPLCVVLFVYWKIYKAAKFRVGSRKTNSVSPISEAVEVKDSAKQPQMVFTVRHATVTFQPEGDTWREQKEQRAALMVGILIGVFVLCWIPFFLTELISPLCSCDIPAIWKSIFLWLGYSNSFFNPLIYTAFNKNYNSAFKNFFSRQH

Going from COc1cccc2c1C(Nc1ccc3cc(NC(=O)NC4CCN(CCSC)CC4)ccc3n1)CC2 (racemic) [Example 51, rac-1-[2-(7-Methoxy-indan-1-ylamino)-quinolin-6-yl]-3-[1-(2-methylsulfanyl-ethyl)-piperidin-4-yl]-urea] to COc1cccc2c1C(Nc1ccc3cc(NC(=O)NC4CCN(C(=O)CC(F)(F)F)CC4)ccc3n1)CC2 (racemic) [Example 52, rac-1-[2-(7-Methoxy-indan-1-ylamino)-quinolin-6-yl]-3-[1-(3,3,3-trifluoro-propionyl)-piperidin-4-yl]-urea], the Ki rises from 3.9 nM to 7.5 nM (1.9-fold). The first binds more tightly here.

COc1cccc2c1C(Nc1ccc3cc(NC(=O)N(C)[C@@H]4C[C@H]5CC[C@@H](C4)N5C(C)C)ccc3n1)CC2 (mixture of isomers) [Example 188, rac-1-((3-exo)-8-Isopropyl-8-aza-bicyclo[3.2.1]oct-3-yl)-3-[2-(7-methoxy-indan-1-ylamino)-quinolin-6-yl]-1-methyl-urea] and COc1cccc2c1C(Nc1ccc3cc(NC(=O)NC(C)C)ccc3n1)CCC2 (racemic) [Example 15, rac-1-Isopropyl-3-[2-(8-methoxy-1,2,3,4-tetrahydro-naphthalen-1-ylamino)-quinolin-6-yl]-urea] are within 1.5-fold of each other in Ki: 8.5 nM for the first, 7.7 nM for the second.

CNC(=O)Nc1ccc2nc(N[C@@H]3CCc4ccccc43)ccc2c1 [Example 7, 1-[2-((R)-Indan-1-ylamino)-quinolin-6-yl]-3-methyl-urea] and CC(C)NC(=O)Nc1ccc2nc(N[C@@H]3CCc4ccccc43)ccc2c1 [Example 3, 1-[2-((R)-Indan-1-ylamino)-quinolin-6-yl]-3-isopropyl-urea] are within 1.5-fold of each other in Ki: 3.4 nM for the first, 2.5 nM for the second.

COc1cc(C)cc2c1C(Nc1ccc3cc(NC(=O)NC(C)C)ccc3n1)CC2 (racemic) [Example 130, rac-1-Isopropyl-3-[2-(7-methoxy-5-methyl-indan-1-ylamino)-quinolin-6-yl]-urea] and COc1cc(C)cc2c1C(Nc1ccc3cc(NC(=O)NC4CCN(C)CC4)ccc3n1)CC2 (racemic) [Example 131, rac-1-[2-(7-Methoxy-5-methyl-indan-1-ylamino)-quinolin-6-yl]-3-(1-methyl-piperidin-4-yl)-urea] are within 1.5-fold of each other in Ki: 3.4 nM for the first, 2.9 nM for the second.

CCOc1cccc2c1C(Nc1ccc3cc(NC(=O)NC4CCN(C(C)C)CC4)ccc3n1)CO2 (racemic) [Example 181, rac-1-[2-(4-Ethoxy-2,3-dihydro-benzofuran-3-ylamino)-quinolin-6-yl]-3-(1-isopropyl-piperidin-4-yl)-urea] and O=C(Nc1ccc2nc(NC3CCc4cc(F)ccc43)ccc2c1)NC1CCN(CCO)CC1 (racemic) [Example 197, rac-1-[2-(5-Fluoro-indan-1-ylamino)-quinolin-6-yl]-3-[1-(2-hydroxy-ethyl)-piperidin-4-yl]-urea] are within 1.5-fold of each other in Ki: 4.1 nM for the first, 3.5 nM for the second.

COc1cccc2c1C(Nc1ccc3cc(NS(=O)(=O)N4C[C@@H]5C[C@H]4CO5)ccc3n1)CCC2 (stereo partly drawn) [Example 91, (1S,4S)-2-Oxa-5-aza-bicyclo[2.2.1]heptane-5-sulfonic acid [2-(8-methoxy-1,2,3,4-tetrahydro-naphthalen-1-ylamino)-quinolin-6-yl]-amide] and NS(=O)(=O)Nc1ccc2nc(N[C@@H]3CCc4ccccc43)ccc2c1 [Example 72, N-{2-[(1R)-2,3-dihydro-1H-inden-1-ylamino]quinolin-6-yl}sulfamide hydrochloride] are within 1.5-fold of each other in Ki: 6.8 nM for the first, 8.4 nM for the second.

N#CCN1CCC(NC(=O)Nc2ccc3nc(N[C@@H]4CCc5ccccc54)ccc3c2)CC1 [Example 133, 1-(1-Cyanomethyl-piperidin-4-yl)-3-[2-((R)-indan-1-ylamino)-quinolin-6-yl]-urea] and O=C(Nc1ccc2nc(N[C@@H]3CCc4ccccc43)ccc2c1)NC1CCN(CCF)CC1 [Example 97, 1-[1-(2-Fluoro-ethyl)-piperidin-4-yl]-3-[2-((R)-indan-1-ylamino)-quinolin-6-yl]-urea] are within 1.5-fold of each other in Ki: 4.2 nM for the first, 2.9 nM for the second.

Molecule O=C(Nc1ccc2nc(N[C@@H]3CCc4ccccc43)ccc2c1)NC1CCN(C2CC2)CC1 [Example 41, 1-(1-Cyclopropyl-piperidin-4-yl)-3-[2-((R)-indan-1-ylamino)-quinolin-6-yl]-urea] has a Ki of 4.1 nM.
